The values that follow come from patent US20060293223A1 (Eli Lilly and Company Patent Division, priority 2003, published 2006).

Positions of bridges follow the written chain, without caps; N, C: chain ends. Non-standard residues stand in square brackets, D forms with d. No end group written: not given here. NMeY = CN[C@@H](Cc1ccc(O)cc1)C(=O)O; hCys = N[C@@H](CCS)C(=O)O
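Further: ratio of EC50 values obtained at MC1 versus MC4 receptors, with MC1 potency measured by luciferase reporter activity in stably transfected cells expressing human MC1.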

This experiment relates to MC1/MC4. The note with it: ratio MC1/MC4.
For the substance “Ac-cyclo[hCys-His-(4-Cl-D-Phe)-Arg-Trp-Cys]-NH2 [Compound 140]”, the MC1/MC4 selectivity worked out at 128.15. In the case of “Ac-cyclo[hCys-His-(4-Cl-D-Phe)-Arg-Trp-penicillamine]-NH2 [Compound 169]”, the MC1/MC4 selectivity amounted to 1804.00.

As for “Ac-cyclo[hCys-His-(4-F-D-Phe)-Arg-Trp-Cys]-NH2 [Compound 139]”, the MC1/MC4 selectivity is recorded as 44.29. As for “Ac-cyclo[hCys-His-(β-cyclohexyl-D-Ala)-Arg-Trp-Cys]-NH2 [Compound 167]”, the MC1/MC4 selectivity was determined as 3.36. As to “Ac-cyclo[hCys-His-D-Phe-Arg-Trp-Cys]-OH [Compound 138]”, the MC1/MC4 selectivity is given as 38.81.

On to “Ac-cyclo[hCys-His-D-Phe-Arg-Trp-penicillamine]-NH2 [Compound 168]”, for which the MC1/MC4 selectivity was found to be 212.71.

With “Ac-diaminobutyryl-cyclo[Cys-Glu-His-D-Phe-Arg-Trp-Cys]-NH2 [Compound 44]”, the MC1/MC4 selectivity turned out to be 15.00. In the case of “Ac-diaminopropionyl-cyclo[Cys-Glu-His-D-Phe-Arg-Trp-Cys]-NH2 [Compound 43]” it was 11.00; in that of “Ac-hArg-cyclo[Cys-Glu-His-D-Phe-Arg-Trp-Cys]-NH2 [Compound 54]”, 20.85; in that of “Ac-nLeu-cyclo[Cys-Glu-His-D-Phe-Arg-Trp-Cys]-NH2 [Compound 60]”, 29.95. With “Ac-nLeu-cyclo[Cys-Glu-His-D-Phe-Arg-Trp-Cys]-Ser-Pro-NH2 [Compound 61]” the figure was 1.70; with “Ac-nLeu-cyclo[hCys-His-D-Phe-Arg-Trp-Cys]-NH2 [Compound 160]”, 0.90. On to “Arg-cyclo[Cys-Glu-His-D-Phe-Arg-Trp-Cys]-OH [Compound 45]”, for which the MC1/MC4 selectivity stood at 30.47. Regarding “Arg-cyclo[Cys-His-(4-Cl-D-Phe)-Arg-Trp-hCys]-NH2 [Compound 188]”, the MC1/MC4 selectivity is on record as 29.56. Consider “Arg-cyclo[Cys-His-(4-F-D-Phe)-Arg-Trp-hCys]-NH2 [Compound 187]”, for which the MC1/MC4 selectivity is reported as 20.76.

In the case of “Arg-cyclo[hCys-(1-Me-D-His)-D-Phe-Arg-Trp-Cys]-NH2 [Compound 157]”, the MC1/MC4 selectivity is given as 17.60. In the case of “Arg-cyclo[hCys-(1-Me-His)-D-Phe-Arg-Trp-Cys]-NH2 [Compound 156]” it was 158.41. In the case of “Arg-cyclo[hCys-His-D-Phe-Arg-Trp-hCys]-NH2 [Compound 194]” it was 10.61; in that of “N-(2-naphthalenesulfonyl)-D-Arg-cyclo[Cys-Glu-His-D-Phe-Arg-Trp-Cys]-NH2 [Compound 64]”, 4.12. With “N-(2-naphthalenesulfonyl)-cyclo[hCys-His-D-Phe-Arg-Trp-Cys]-NH2 [Compound 151]”, the MC1/MC4 selectivity is listed as 14.00. “N-(2-naphthalenesulfonylamino-4-oxo-butyryl)-D-Arg-cyclo[Cys-Glu-His-D-Phe-Arg-Trp-Cys]-NH2 [Compound 65]”: the MC1/MC4 selectivity amounted to 2.70.

In the case of “N-(4-phenylsulfonamido-4-oxo-butyryl)-cyclo[hCys-His-D-Phe-Arg-Trp-Cys]-NH2 [Compound 152]”, the MC1/MC4 selectivity came to 7.73. In the case of “N-butyryl-cyclo[Cys-Glu-His-D-Phe-Arg-Trp-Cys]-NH2 [Compound 38]” it was 28.16; in that of “N-cyclobutanecarbonyl-cyclo[hCys-His-D-Phe-Arg-Trp-Cys]-NH2 [Compound 142]”, 35.55; in that of “N-cyclohexanecarbonyl-cyclo[hCys-His-D-Phe-Arg-Trp-Cys]-NH2 [Compound 144]”, 14.85.

As for “N-cyclohexanecarbonyl-cyclo[hCys-His-D-Phe-Arg-Trp-penicillamine]-NH2 [Compound 172]”, the MC1/MC4 selectivity is recorded as 26.45. With “N-cyclopentanecarbonyl-cyclo[hCys-His-D-Phe-Arg-Trp-Cys]-NH2 [Compound 143]” the figure was 19.27; with “N-cyclopentanecarbonyl-cyclo[hCys-His-D-Phe-Arg-Trp-penicillamine]-NH2 [Compound 171]”, 75.11; with “N-cyclopropanecarbonyl-cyclo[hCys-His-D-Phe-Arg-Trp-Cys]-NH2 [Compound 141]”, 83.00.

With “N-glutaryl-Tyr-Arg-cyclo[Cys-Glu-His-D-Phe-Arg-Trp-Cys]-NH2 [Compound 75]”, the MC1/MC4 selectivity stood at 6.00. With “N-glutaryl-Tyr-Arg-cyclo[Cys-Glu-His-D-Phe-Arg-Trp-Cys]-OH [Compound 76]” the figure was 6.00; with “N-hexanoyl-cyclo[hCys-His-D-Phe-Arg-Trp-Cys]-NH2 [Compound 145]”, 3.82; with “N-hexanoyl-cyclo[hCys-His-D-Phe-Arg-Trp-penicillamine]-NH2 [Compound 170]”, 9.00. In the case of “N-phenylsulfonyl-cyclo[hCys-His-D-Phe-Arg-Trp-Cys]-NH2 [Compound 150]” it was 12.88. As for “N-propionyl-cyclo[Cys-Glu-His-D-Phe-Arg-Trp-Cys]-NH2 [Compound 37]”, the MC1/MC4 selectivity is given as 36.99.

Take “N-succinyl-Tyr-Arg-cyclo[Cys-Glu-His-D-Phe-Arg-Trp-Cys]-NH2 [Compound 74]”: the MC1/MC4 selectivity was 12.00. For “N-succinyl-Tyr-Arg-cyclo[Cys-Glu-His-D-Phe-Arg-Trp-Cys]-OH [Compound 131]”, the MC1/MC4 selectivity is reported as 7.00. For the substance “N-valeryl-cyclo[Cys-Glu-His-D-Phe-Arg-Trp-Cys]-NH2 [Compound 39]”, the MC1/MC4 selectivity is 19.67. In the case of “RCH[dF]RW[hCys]-NH2 (disulfide 2-7) [Compound 186]” it was 11.44; in that of “R[hCys]H[dF]RWC-NH2 (disulfide 2-7) [Compound 153]”, 41.81; in that of “R[hCys]H[dF]RWC-OH (disulfide 2-7) [Compound 155]”, 55.84. “Tyr-Arg-cyclo[Cys-Glu-His-D-Phe-Arg-Trp-Cys]-NH2 [Compound 68]”: the MC1/MC4 selectivity was determined as 14.08.

In the case of “Tyr-Arg-cyclo[Cys-Glu-His-D-Phe-Arg-Trp-Cys]-NH—(CH2)6—NH2 [Compound 70]”, the MC1/MC4 selectivity is listed as 2.00. As to “Tyr-Arg-cyclo[Cys-Glu-His-D-Phe-Arg-Trp-Cys]-OH [Compound 69]”, the MC1/MC4 selectivity is given as 18.38.

Take “YRCEH[dF]RWCE-NH2 (disulfide 3-9) [Compound 71]”: the MC1/MC4 selectivity is 5.13. With “YRCGH[dF]RWC-NH2 (disulfide 3-9) [Compound 11]” the figure was 11.00; with “YR[hCys]H[dF]RWC-NH2 (disulfide 3-8) [Compound 162]”, 30.07. With “YR[hCys]H[dF]RWC-OH (disulfide 3-8) [Compound 163]” the figure was 19.46; with “[NMeY]RCMH[dF]RWC-NH2 (disulfide 3-9) [Compound 17]”, 10.42. On to “[dR][hCys]H[dF]RWC-NH2 (disulfide 2-7) [Compound 154]”, for which the MC1/MC4 selectivity came out at 36.00.

“cyclo[3-thiopropionyl-His-D-Phe-Arg-Trp-hCys]-NH2 [Compound 179]”: the MC1/MC4 selectivity was determined as 5.35. With “cyclo[Cys-Glu-His-D-Phe-Arg-Trp-Cys]-NH2 [Compound 29]” the figure was 15.00; with “cyclo[Cys-His-(4-Cl-D-Phe)-Arg-Trp-hCys]-NH2 [Compound 182]”, 185.74. With “cyclo[Cys-His-(4-F-D-Phe)-Arg-Trp-hCys]-NH2 [Compound 181]” the figure was 45.25; with “cyclo[Cys-His-D-Phe-Arg-Trp-hCys]-NH2 [Compound 180]”, 30.38.

“cyclo[hCys-His-(4-Cl-D-Phe)-Arg-Trp-Cys]-NH2 [Compound 135]”: the MC1/MC4 selectivity came out at 120.27. With “cyclo[hCys-His-(4-F-D-Phe)-Arg-Trp-Cys]-NH2 [Compound 134]” the figure was 68.42; with “cyclo[hCys-His-D-Phe-Arg-Trp-Cys]-NH2 [Compound 132]”, 77.32. With “cyclo[hCys-His-D-Phe-Arg-Trp-Cys]-OH [Compound 133]” the figure was 31.29; with “phenylsulfonyl-Gly-cyclo[hCys-His-D-Phe-Arg-Trp-Cys]-NH2 [Compound 161]”, 2.18.
